Experimental data published in ChEMBL document CHEMBL3885861, “Open TG-GATES”.

Species: Rattus norvegicus
Test: Open TG-GATES - Regimen: Single
Type: toxicity, organism-based, Sprague-Dawley
Set-up: regimen Single, gender Male, age 6 weeks
Settings: in vivo, po, 0 mg/kg, route gavage, dose level Control; for APTT / Bas / Eos / Fbg / Hb / Ht / Lym / MCH / MCHC / MCV / Mono / Neu / PT / Plat / RBC / Ret / WBC: tissue Blood; for KIDNEY_L / KIDNEY_R / KIDNEY_TOTAL: tissue Kidney; for LIVER: tissue Liver; for ALP / ALT / AST / CRE / DBIL / GLC / IP / K / LDH / Na / PL / RALB / TBIL / TC / TG / TP / gamma-GTP: tissue Plasma

CC(C)Cc1ccc(C(C)C(=O)O)cc1 (centres undefined) [IBUPROFEN]
TERMINAL_BW (3 h): 204.9 g
APTT (3 h): 21.3 s
Bas (3 h): 0%
Eos (3 h): 1%
Fbg (3 h): 277 mg/dL
Hb (3 h): 13.2 g/dL
Ht (3 h): 38.4%
Lym (3 h): 72.8%
MCH (3 h): 21.5 pg
MCHC (3 h): 34.3%
MCV (3 h): 62.7 fL
Mono (3 h): 2%
Neu (3 h): 23.6%
PT (3 h): 15.8 s
Plat (3 h): 113 x10_4/uL
RBC (3 h): 612.8 x10_4/ul
Ret (3 h): 7.9%
WBC (3 h): 79.6 x10_2/uL
KIDNEY_L (3 h): 0.9 g
KIDNEY_R (3 h): 1 g
KIDNEY_TOTAL (3 h): 1.9 g
LIVER (3 h): 9.3 g
ALP (3 h): 1578.8 IU/L
ALT (3 h): 42.4 IU/L
AST (3 h): 81.8 IU/L
CRE (3 h): 0.2 mg/dL
DBIL (3 h): 0 mg/dL
GLC (3 h): 183 mg/dL
IP (3 h): 8.2 mg/dL
K (3 h): 4 meq/L
LDH (3 h): 274 IU/L
Na (3 h): 142 meq/L
PL (3 h): 130.4 mg/dL
RALB (3 h): 3 g/dL
TBIL (3 h): 0.018 mg/dL
TC (3 h): 72.6 mg/dL
TG (3 h): 51 mg/dL
TP (3 h): 5.4 g/dL
gamma-GTP (3 h): 1.2 IU/L
TERMINAL_BW (6 h): 200 g
Bas (6 h): 0%
Eos (6 h): 0.8%
Fbg (6 h): 288.8 mg/dL
Hb (6 h): 13.6 g/dL
Ht (6 h): 40%
Lym (6 h): 82.2%
MCH (6 h): 21.7 pg
MCHC (6 h): 34%
MCV (6 h): 63.8 fL
Mono (6 h): 1.8%
PT (6 h): 15.9 s
Plat (6 h): 118.6 x10_4/uL
RBC (6 h): 627 x10_4/ul
Ret (6 h): 7.8%
WBC (6 h): 96.9 x10_2/uL
KIDNEY_L (6 h): 0.9 g
KIDNEY_R (6 h): 0.9 g
KIDNEY_TOTAL (6 h): 1.9 g
LIVER (6 h): 8.8 g
ALP (6 h): 1383.4 IU/L
ALT (6 h): 39.6 IU/L
AST (6 h): 75.4 IU/L
CRE (6 h): 0.2 mg/dL
DBIL (6 h): 0 mg/dL
GLC (6 h): 178 mg/dL
IP (6 h): 8.9 mg/dL
K (6 h): 4.2 meq/L
LDH (6 h): 236.2 IU/L
Na (6 h): 140.6 meq/L
PL (6 h): 132.2 mg/dL
RALB (6 h): 2.9 g/dL
TBIL (6 h): 0.028 mg/dL
TC (6 h): 73.2 mg/dL
TG (6 h): 69.8 mg/dL
TP (6 h): 5.4 g/dL
gamma-GTP (6 h): 1.2 IU/L
TERMINAL_BW (9 h): 198.1 g
APTT (9 h): 23.4 s
Bas (9 h): 0%
Eos (9 h): 0.6%
Fbg (9 h): 287 mg/dL
Hb (9 h): 13 g/dL
Ht (9 h): 38.7%
Lym (9 h): 79.6%
MCH (9 h): 21.6 pg
MCHC (9 h): 33.8%
MCV (9 h): 64 fL
Mono (9 h): 1.8%
Neu (9 h): 17%
PT (9 h): 15.9 s
Plat (9 h): 125.1 x10_4/uL
RBC (9 h): 604.6 x10_4/ul
Ret (9 h): 7.4%
WBC (9 h): 76.6 x10_2/uL
KIDNEY_L (9 h): 0.9 g
KIDNEY_R (9 h): 0.9 g
KIDNEY_TOTAL (9 h): 1.8 g
LIVER (9 h): 8.2 g
ALP (9 h): 1448.2 IU/L
ALT (9 h): 36.6 IU/L
AST (9 h): 73.2 IU/L
CRE (9 h): 0.2 mg/dL
DBIL (9 h): 0.006 mg/dL
GLC (9 h): 178 mg/dL
IP (9 h): 9.6 mg/dL
K (9 h): 4.1 meq/L
Na (9 h): 141.4 meq/L
PL (9 h): 130.4 mg/dL
RALB (9 h): 2.9 g/dL
TBIL (9 h): 0.026 mg/dL
TC (9 h): 72.8 mg/dL
TG (9 h): 54.4 mg/dL
TP (9 h): 5.5 g/dL
gamma-GTP (9 h): 1.2 IU/L
TERMINAL_BW (24 h): 213.6 g
APTT (24 h): 20.3 s
Bas (24 h): 0%
Eos (24 h): 1.2%
Fbg (24 h): 306 mg/dL
Hb (24 h): 13.1 g/dL
Ht (24 h): 38.6%
Lym (24 h): 79.8%
MCH (24 h): 21.4 pg
MCHC (24 h): 33.8%
MCV (24 h): 63.5 fL
Mono (24 h): 3.2%
Neu (24 h): 15.2%
PT (24 h): 16.5 s
Plat (24 h): 124.1 x10_4/uL
RBC (24 h): 609.8 x10_4/ul
Ret (24 h): 7.4%
WBC (24 h): 117.7 x10_2/uL
KIDNEY_L (24 h): 0.9 g
KIDNEY_R (24 h): 0.9 g
KIDNEY_TOTAL (24 h): 1.8 g
LIVER (24 h): 10.1 g
ALP (24 h): 1790.4 IU/L
ALT (24 h): 47.2 IU/L
AST (24 h): 77.2 IU/L
CRE (24 h): 0.2 mg/dL
DBIL (24 h): 0 mg/dL
GLC (24 h): 198.8 mg/dL
IP (24 h): 7.3 mg/dL
K (24 h): 4.5 meq/L
LDH (24 h): 235.4 IU/L
Na (24 h): 141.6 meq/L
PL (24 h): 145.8 mg/dL
RALB (24 h): 3.1 g/dL
TBIL (24 h): 0 mg/dL
